These are literature values, as cited in paper PMC10254170, “Diastereoselective Synthesis of the Borylated D-Galactose Monosaccharide 3-Boronic-3-Deoxy-D-Galactose and Biological Evaluation in Glycosidase Inhibition and in Cancer for Boron Neutron Capture Therapy (BNCT)” (Molecules, 2023).

This data set concerns human. As to conditions: 5 min; cited from earlier work.

As to `c1ccccc1` [benzene], the LCLO is reported as 20,000 ppm.
